Assay [1] is described as follows: DPPH radical scavenging activity. The following applies: for Antioxidant activity (DPPH scavenging) of peptide compared with synthetic antioxidant: peptide 10 mg/mL versus 0.2 mg/mL BHT (Figure 7), abstract prints BHA; for DPPH Scavenging activity: standard 0.2 mg/mL, 60 min, room temperature, dark, 517 nm, mean ± SD of three independent experiments. As for the experimental part: The method used was in accordance with Bersuder et al. using the synthetic free radical DPPH. Briefly, a volume of 500 μL of selected fractions at different concentrations (0.5, 1, 5, 10 and 20 mg/mL) was mixed with 500 μL of 99.5% ethanol and 125 μL of 0.02% w/v DPPH prepared previously in 99.5% ethanol. The mixture was shaken vigorously then kept at room temperature in the dark. After 60 min, the color reduction of the DPPH substrate was measured at an absorbance of 517 nm. Trolox and BHT (both used at concentration 0.2 mg/mL) were also tested as positive controls for comparison. The DPPH radical scavenging activity was calculated as follows: Radical scavenging activity (%)=AC−AS/AC×100 where AC is the absorbance for negative control using 500 μL deionized water instead of sample, AS is the absorbance of the sample or positive controls (trolox/BHT). A lower absorbance of the reaction mixture indicated a higher DPPH radical-scavenging activity.
Background: The DPPH test is a chemical assay of radical scavenging.

In assay [2] the target is angiotensin converting enzyme (ACE) (Homo sapiens, UniProt P12821). In words: ACE inhibitory activity by HPLC (HHL substrate, hippuric acid at 228 nm). The conditions noted are these: peptide 10 mg/mL versus captopril 0.5 mg/mL, Dunnett's test, p < 0.05, Figure 8.
angiotensin converting enzyme (ACE), sequence (P12821 30-1306, species assumed): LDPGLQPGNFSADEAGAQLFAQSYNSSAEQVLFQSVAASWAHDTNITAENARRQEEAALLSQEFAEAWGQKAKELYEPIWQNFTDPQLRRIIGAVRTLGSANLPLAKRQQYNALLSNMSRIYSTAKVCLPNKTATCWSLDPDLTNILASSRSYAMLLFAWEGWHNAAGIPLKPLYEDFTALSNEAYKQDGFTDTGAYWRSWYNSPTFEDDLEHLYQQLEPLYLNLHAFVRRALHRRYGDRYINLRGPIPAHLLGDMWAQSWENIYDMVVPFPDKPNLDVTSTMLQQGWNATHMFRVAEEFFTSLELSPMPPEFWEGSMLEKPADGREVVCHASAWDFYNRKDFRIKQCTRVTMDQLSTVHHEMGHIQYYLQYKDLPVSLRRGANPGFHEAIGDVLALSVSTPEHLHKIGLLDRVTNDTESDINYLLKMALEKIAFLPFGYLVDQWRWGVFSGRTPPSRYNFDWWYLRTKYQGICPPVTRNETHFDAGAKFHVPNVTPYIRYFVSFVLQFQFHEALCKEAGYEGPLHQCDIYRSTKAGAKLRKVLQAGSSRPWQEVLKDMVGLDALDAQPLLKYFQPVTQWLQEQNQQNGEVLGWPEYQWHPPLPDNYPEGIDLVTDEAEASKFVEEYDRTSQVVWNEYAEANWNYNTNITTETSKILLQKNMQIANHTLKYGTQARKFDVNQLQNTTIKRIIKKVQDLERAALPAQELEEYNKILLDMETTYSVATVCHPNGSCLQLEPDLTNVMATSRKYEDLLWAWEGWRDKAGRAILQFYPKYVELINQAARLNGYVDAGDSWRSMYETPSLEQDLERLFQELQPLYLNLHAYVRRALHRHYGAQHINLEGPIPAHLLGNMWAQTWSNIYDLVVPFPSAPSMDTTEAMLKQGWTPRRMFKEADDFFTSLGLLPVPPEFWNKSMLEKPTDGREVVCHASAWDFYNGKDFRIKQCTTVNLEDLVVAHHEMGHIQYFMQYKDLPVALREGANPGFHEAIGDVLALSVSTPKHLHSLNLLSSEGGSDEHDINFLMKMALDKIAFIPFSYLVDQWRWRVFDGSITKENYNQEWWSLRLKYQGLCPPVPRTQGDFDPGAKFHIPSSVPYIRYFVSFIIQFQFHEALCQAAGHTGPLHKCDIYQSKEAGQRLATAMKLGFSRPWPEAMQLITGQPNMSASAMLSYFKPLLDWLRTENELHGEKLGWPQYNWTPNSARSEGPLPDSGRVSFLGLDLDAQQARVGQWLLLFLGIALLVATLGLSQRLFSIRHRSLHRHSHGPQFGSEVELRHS
Experimental: The measurement of ACE inhibitory activity was conducted using HPLC in accordance with a modified method of Wu et al. [53]. All samples were prepared with 100 mM borate buffer, containing 300 mM NaCl at pH = 8.3. […] The peptide fractions and HHL were mixed and maintained at 37 °C for 10 min in 2 mL polyethylene microcentrifuge tubes. ACE was maintained at 37 °C for 10 min before the two solutions were combined. The combined mixture was incubated at 37 °C for 30 min with continuous agitation. In order to terminate the reaction, 85 μL of 1 M HCl was added. Samples were analyzed on a C18 column (3.0 mm × 150 mm, 5 μm, phenomenex) and hippuric acid (HA) and HHL were detected at 228 nm using HPLC system (Ultimate 3000 HPLC, Thermo Fisher Scientific Inc., Loughborough, UK). Data were analyzed using integration software (Chromeleon, Thermo Fisher Scientific Inc., Loughborough, UK).
Assay [3] can be described thus: Lipid oxidation in linoleic acid model system, ferric thiocyanate (FTC) method. The conditions noted are these: positive control 0.2 mg/mL; after four days incubation at 40 °C; 500 nm; mean of three independent experiments. As for the experimental part:
The inhibition of lipid peroxidation by the EYPH fractions was measured using linoleic acid oxidized as described below. The degree of oxidation was measured using (FTC) and (TBARS) methods. In order to prepare the reaction mixture, 50 mg of each sample was dissolved individually with 10 mL absolute ethanol, 0.13 mL linoleic acid, 4.87 mL distilled water and 10 mL 50 mM sodium phosphate buffer (pH 7). Samples were homogenized by a sonicator (Labsonic® M, B. Braun Biotech International, Melsungen, Germany). The tubes were then sealed tightly with silicone rubber caps and kept in the dark at 40 °C in an oven. […] A negative control was prepared in the same manner using distilled water in place of egg yolk hydrolysates. […] After exactly 3 min, the absorbance of the resulting ferric thiocyanate solution was read at 500 nm using a spectrophotometer (Kontron Instrument UNIKON 860, Cambridge, UK). […] The absorbance of the upper layer was measured at 532 nm using a spectrophotometer (Kontron Instrument UNIKON 860) Malonaldehyde standard curve was prepared using 1,1,3,3-tetramethoxypropane and TBARS were expressed as μg of malonaldehyde/mL. The percentage (%) of lipid oxidation inhibition was calculated according to the following formula: Lipid oxidation inhibition (%)=Absorbance of control − Absorbance of sample/Absorbance of control×100

Assay [4] can be described thus: Lipid oxidation in linoleic acid model system, TBARS method. The following applies: positive control 0.2 mg/mL; after four days incubation at 40 °C; 532 nm; mean of three independent experiments. As for the experimental part: The inhibition of lipid peroxidation by the EYPH fractions was measured using linoleic acid oxidized as described below. The degree of oxidation was measured using (FTC) and (TBARS) methods. In order to prepare the reaction mixture, 50 mg of each sample was dissolved individually with 10 mL absolute ethanol, 0.13 mL linoleic acid, 4.87 mL distilled water and 10 mL 50 mM sodium phosphate buffer (pH 7). Samples were homogenized by a sonicator (Labsonic® M, B. Braun Biotech International, Melsungen, Germany). The tubes were then sealed tightly with silicone rubber caps and kept in the dark at 40 °C in an oven. […] A negative control was prepared in the same manner using distilled water in place of egg yolk hydrolysates. The commercial antioxidants, 0.2 mg/mL of BHT and trolox were also used as positive controls. […] The absorbance of the upper layer was measured at 532 nm using a spectrophotometer (Kontron Instrument UNIKON 860) Malonaldehyde standard curve was prepared using 1,1,3,3-tetramethoxypropane and TBARS were expressed as μg of malonaldehyde/mL. The percentage (%) of lipid oxidation inhibition was calculated according to the following formula: Lipid oxidation inhibition (%)=Absorbance of control − Absorbance of sample/Absorbance of control×100

Assay [5] can be described thus: Hydroxyl radical scavenging activity (HRSA) assay. The following applies: standard 0.2 mg/mL, 37 °C 1 h, pH 7.4, 532 nm, mean ± SD of three independent experiments. As for the experimental part: The HRSA assay was performed as described by Wu et al.. The reaction mixture consisted of 0.1 mL of 10 mM FeSO4, 0.1 mL of 10 mM EDTA, 0.5 mL of 10 mM α-deoxyribose, 0.9 mL sodium phosphate buffer pH 7.4, and 0.2 mL of peptides at different concentrations (0.5, 1, 5, 10 and 20 mg/mL). All reagents were then thoroughly mixed in a tube and 0.2 mL of 10 mM hydrogen peroxide was added. The reaction mixture was then incubated at 37 °C for 1 h. Following incubation, 1 mL of 2.8% TCA and 1 mL of 1.0% TBA were added to the test tubes, and the contents boiled for 15 min. After cooling at room temperature, the absorbance of the mixture was measured at 532 nm. Trolox and BHT (both used at concentration 0.2 mg/mL) were also tested as positive controls for comparison. The HRSA was evaluated as a percentage of α-deoxyribose oxidation inhibition by the hydroxyl radical and calculated as follows: HRSA (%)=AC−AS/AC×100 where AC is the absorbance for negative control using 500 μL deionized water instead of sample, AS is the absorbance of the sample or positive controls (trolox/BHT).

Assay [6] is described as follows: Superoxide anion scavenging activity (pyrogallol autoxidation). The conditions noted are these: standard 0.2 mg/mL, Tris-HCl pH 8.2, 25 °C, 320 nm, mean ± SD of three independent experiments. As for the experimental part: In this assay, the alkaline condition enhances the autoxidation of pyrogallol to produce a superoxide anion, which, in turn, accelerates the autoxidation process by autocatalysis. The autoxidation of a pyrogallol method described by Marklund and Marklund was applied to measure the superoxide anion scavenging power of egg yolk peptides. The reaction mixture consisted of 1.0 mL of peptides sample at different concentrations ([…], 5.0, 10 and 20 mg/mL) and 1.8 mL of 50 mM Tris-HCl buffer, previously adjusted to pH 8.2. The mixture was incubated at 25 °C for 20 min. Then, 40 μL of 45 mM pyrogallol (prepared previously in 10 mM HCl) was added. The absorbance of the reaction mixture was measured at 320 nm immediately after adding pyrogallol at 1 min intervals up to 4 min. Trolox and BHT (both used at a concentration of 0.2 mg/mL) were also tested as positive controls for comparison.

Assay [7] in a line: Ferrous chelating activity assay (ferrozine). The following applies: EDTA 0.2 mg/mL, 10 min room temperature, 563 nm, mean ± SD of three independent experiments. As for the experimental part:
The activity of the peptide to chelate ferrous Fe^2+ ions was measured according to the method of Ebrahimzadeh et al.. The reaction mixture contained 0.5 mL of isolated peptides at different concentrations (0.5, 1, 5, 10 and 20 mg/mL), 1.6 mL deionized water and 0.05 mL of 2 mM FeCl2. After 30 s, 0.1 mL of 5 mM ferrozine was added. After 10 min at room temperature, the absorbance of the Fe^2+-ferrozine complex was measured at 563 nm. EDTA (0.2 mg/mL) was also tested as a positive control for comparison. The activity of the peptide to chelate Fe^2+ was calculated as: Chelating ability (%) =AC−AS/AC×100 where AC is the absorbance of the control, using 0.5 mL deionized water instead of sample, AS is the absorbance of the sample or positive control EDTA.

For WYGPD, in assay [1], the “Antioxidant activity (DPPH scavenging) of peptide compared with synthetic antioxidant” value is given as “not significantly different from the synthetic BHA antioxidant”.

Regarding YPSPV, the “ACE inhibitory activity of synthesized peptide compared with captopril” value in assay [2] is on record as “higher ACE inhibitory activity compared with captopril”.

Consider `Cc1cc(C(C)(C)C)c(O)c(C(C)(C)C)c1` [BHT, butylated hydroxyltoluene], for which the “Lipid Oxidation (%), FTC method” value in assay [3] amounted to 23.3%. Moreover, the “DPPH Scavenging activity” value is reported as 23.6% in assay [1] and 23.60% ± 1.66% in assay [1] (SD). In addition, the “Lipid Oxidation (%), TBARS method” value in assay [4] is on record as 26.1%. Besides, the “Hydroxyl radical scavenging activity” value in assay [5] is listed as 58.97% ± 1.02%. For the same compound, the “Superoxide anion scavenging activity” value in assay [6] is on record as 67.45% ± 1.67%.

As to SDNRNQGY, the “ACE inhibitory activity of synthesized peptide compared with captopril” value in assay [2] is “not significantly different from that of the positive control captopril”.

On to `O=C(O)CN(CCN(CC(=O)O)CC(=O)O)CC(=O)O` [EDTA], for which the “Fe2+ chelating activity” value in assay [7] is reported as 97.54% ± 1.79%.

KLSDW: the “Antioxidant activity (DPPH scavenging) of peptide compared with synthetic antioxidant” value in assay [1] is “not significantly different from the synthetic BHA antioxidant”.

With `Cc1c(C)c2c(c(C)c1O)CCC(C)(C(=O)O)O2` (centres unmarked) [Trolox, trolox], in assay [3], the “Lipid Oxidation (%), FTC method” value stood at 32.2%. Also, the “DPPH Scavenging activity” value in assay [1] was 38.5%; in assay [1] (SD), 38.46% ± 1.43%. In addition, in assay [4], the “Lipid Oxidation (%), TBARS method” value is listed as 28.7%. The “Hydroxyl radical scavenging activity” value in assay [5] is reported as 70.03% ± 3.48%. In addition, in assay [6], the “Superoxide anion scavenging activity” value is 63.48% ± 1.63%.

For the origin of these results see PMC4691102, “Antioxidant and ACE Inhibitory Bioactive Peptides Purified from Egg Yolk Proteins” (International Journal of Molecular Sciences, 2015).
